In brackets after ≈: the same amount, converted by molar mass.
Legend:
Saccharomyces cerevisiae [1] = assay: Inhibition of Sir2p in Saccharomyces cerevisiae DMY2843 assessed as minimum inhibitory concentration
[2] = target: T1, NAD-dependent protein deacetylase sirtuin-2 (Homo sapiens, UniProt Q8IXJ6); assay: Inhibition of human recombinant SIRT2 using Arg-His-Lys-Lys(epsilon-acetyl)-AMC at 37 degC for 45 mins by fluorescent screening assay
T1 sequence (Q8IXJ6 whole entry): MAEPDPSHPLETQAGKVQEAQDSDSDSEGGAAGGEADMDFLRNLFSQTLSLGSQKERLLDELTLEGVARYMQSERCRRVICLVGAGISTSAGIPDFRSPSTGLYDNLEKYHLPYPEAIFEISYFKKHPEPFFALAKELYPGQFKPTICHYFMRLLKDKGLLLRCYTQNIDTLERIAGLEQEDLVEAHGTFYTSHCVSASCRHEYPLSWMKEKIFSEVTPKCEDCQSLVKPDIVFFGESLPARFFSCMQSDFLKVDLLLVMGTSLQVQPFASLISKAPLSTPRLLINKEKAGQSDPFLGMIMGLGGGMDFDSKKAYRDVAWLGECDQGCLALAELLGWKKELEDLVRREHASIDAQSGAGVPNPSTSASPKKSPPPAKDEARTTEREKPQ

[3] = target: T2, NAD-dependent protein deacetylase sirtuin-1 (Homo sapiens, UniProt Q96EB6); assay: Inhibition of human recombinant SIRT1 using Arg-His-Lys-Lys(epsilon-acetyl)-AMC at room temperature for 45 mins by fluorescent screening assay
T2 sequence (Q96EB6 whole entry): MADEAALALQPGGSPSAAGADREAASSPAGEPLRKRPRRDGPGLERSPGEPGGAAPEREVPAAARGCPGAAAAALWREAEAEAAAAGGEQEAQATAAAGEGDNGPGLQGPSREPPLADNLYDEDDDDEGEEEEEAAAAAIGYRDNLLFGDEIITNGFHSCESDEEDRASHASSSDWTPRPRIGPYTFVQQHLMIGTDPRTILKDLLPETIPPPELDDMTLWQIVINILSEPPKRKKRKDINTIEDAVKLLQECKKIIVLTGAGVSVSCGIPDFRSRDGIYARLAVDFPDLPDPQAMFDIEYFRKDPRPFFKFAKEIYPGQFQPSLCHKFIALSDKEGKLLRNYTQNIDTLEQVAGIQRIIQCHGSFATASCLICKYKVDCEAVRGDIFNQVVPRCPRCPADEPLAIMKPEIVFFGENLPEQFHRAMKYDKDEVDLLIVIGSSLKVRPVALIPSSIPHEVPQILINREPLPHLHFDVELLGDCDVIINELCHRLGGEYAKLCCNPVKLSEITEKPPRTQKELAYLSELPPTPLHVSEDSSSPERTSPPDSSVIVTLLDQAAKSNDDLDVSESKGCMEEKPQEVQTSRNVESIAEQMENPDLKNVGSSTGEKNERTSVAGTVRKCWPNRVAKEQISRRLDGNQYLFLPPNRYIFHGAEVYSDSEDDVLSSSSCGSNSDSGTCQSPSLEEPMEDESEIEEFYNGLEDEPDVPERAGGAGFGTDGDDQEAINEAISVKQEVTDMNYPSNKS

Saccharomyces cerevisiae [4] = assay: Cytotoxicity against Saccharomyces cerevisiae DMY2843 at 10 mM; assay type: organism-based; details: in vivo, 10000 µM

Row | MIC (Saccharomyces cerevisiae [1]) [µM] | IC50 [2] [mM] | IC50 [3] [mM] | SMILES | Activity (Saccharomyces cerevisiae [4])
1 | 12.5 (≈ 4.93 µg/mL) | – | – | CC(NC(=O)c1ccccc1/N=C/c1c(O)ccc2ccccc12)c1ccccc1 (stereo not given) | –
2 | 2500 (≈ 869 µg/mL) | 4.5 | 3.7 | CC[C@@H]1CC(=O)[C@H]2[C@@H](CC=C(C)[C@@H]2O)[C@]1(C)C(=O)C1=C(O)NCC1=O [STREPTOSETIN A] | Toxic

Source: ChEMBL document CHEMBL2203192, “Creation of an HDAC-based yeast screening method for evaluation of marine-derived actinomycetes: discovery of streptosetin A” (J Nat Prod, 2012)
